Where only a bound is given, the exact number is not on record here.

The IC50 is the concentration that gives 50% inhibition. Lower therefore signals greater potency in that assay.

Chain of EGFR L858R/T790M/C797S mutant enzyme (P00533 25-1210 T790M/C797S/L858R): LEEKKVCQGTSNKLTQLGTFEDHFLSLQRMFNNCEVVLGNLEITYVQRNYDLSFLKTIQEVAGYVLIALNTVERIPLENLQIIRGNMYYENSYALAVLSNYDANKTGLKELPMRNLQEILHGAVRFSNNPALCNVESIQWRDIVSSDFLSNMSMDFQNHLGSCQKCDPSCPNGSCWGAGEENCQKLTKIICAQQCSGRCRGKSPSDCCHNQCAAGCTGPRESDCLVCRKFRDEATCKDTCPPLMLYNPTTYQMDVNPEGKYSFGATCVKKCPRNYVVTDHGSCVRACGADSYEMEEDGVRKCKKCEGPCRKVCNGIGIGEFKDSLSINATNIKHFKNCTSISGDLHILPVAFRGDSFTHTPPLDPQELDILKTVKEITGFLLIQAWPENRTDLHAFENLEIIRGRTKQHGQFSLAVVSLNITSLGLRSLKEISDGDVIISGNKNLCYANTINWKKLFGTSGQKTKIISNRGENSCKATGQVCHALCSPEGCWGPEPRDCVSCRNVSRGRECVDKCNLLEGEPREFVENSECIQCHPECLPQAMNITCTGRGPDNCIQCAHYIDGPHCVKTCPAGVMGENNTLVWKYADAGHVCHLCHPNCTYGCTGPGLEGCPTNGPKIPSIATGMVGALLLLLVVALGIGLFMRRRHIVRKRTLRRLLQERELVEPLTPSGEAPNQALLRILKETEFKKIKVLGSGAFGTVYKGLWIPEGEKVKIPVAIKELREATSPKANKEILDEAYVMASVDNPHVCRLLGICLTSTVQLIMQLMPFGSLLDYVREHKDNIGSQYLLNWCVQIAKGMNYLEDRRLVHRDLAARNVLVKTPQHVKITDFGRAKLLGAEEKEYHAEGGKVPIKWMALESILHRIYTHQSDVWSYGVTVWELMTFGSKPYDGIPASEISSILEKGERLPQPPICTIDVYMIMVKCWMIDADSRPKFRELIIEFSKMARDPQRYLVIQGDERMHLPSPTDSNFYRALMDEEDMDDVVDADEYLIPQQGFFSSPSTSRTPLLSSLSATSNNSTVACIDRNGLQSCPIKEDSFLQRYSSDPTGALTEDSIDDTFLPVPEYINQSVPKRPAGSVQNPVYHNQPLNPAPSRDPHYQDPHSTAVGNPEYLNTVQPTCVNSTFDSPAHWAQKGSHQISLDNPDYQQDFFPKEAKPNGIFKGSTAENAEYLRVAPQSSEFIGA

In this assay the target is EGFR L858R/T790M/C797S mutant enzyme (Homo sapiens (Human), UniProt P00533, C797S/L858R/T790M). Kind of assay: EGFR mutant enzyme inhibition, HTRF system (Cisbio). The format is biochemical. The conditions noted are these: ATP 1 mM, 37° C. for 2 hours. On the procedure:
In order to evaluate the inhibitory activity of the compound represented by formula 1 according to the present invention against EGFR mutation, the following experiment was performed.
The activity of the compound of the present invention against EGFR mutant enzyme was measured using the HTRF system of Cisbio Co. As an EGFR L858R/T790M/C797S mutant enzyme, a protein provided by SignalChem was purchased and used as an enzyme source.
The composition of the assay buffer used for the activity measurement was as follows: 50 mM Tris-HCl (pH 7.5), 100 mM NaCl, 7.5 mM MgCl2, 3 mM KCl, 0.01% Tween 20, 0.1% BSA, and 1 mM DTT. Herein, an enzyme reaction was performed using a peptide substrate labeled with ATP at the concentration of 1 mM and biotin at the concentration of 0.5 μM. The analysis of the EGFR activity inhibitory effect of the compound was performed according to the following analytical reaction recipe.
Component 1: 4 μl of EGFR mutant enzyme
Component 2: 2 μl of compound solution
Component 3: 4 μl of ATP and biotin-labeled peptide mixture
The enzyme reaction was initiated by mixing the component 1 and the component 2 first and then adding the component 3 thereto. After reacting the mixture at 37° C. for 2 hours, 10 μl of a measurement solution consisting of streptavidin-XL665 and europium-labeled anti-phosphotyrosine antibody provided by Cisbio was added to the enzyme reaction solution, followed by reaction at room temperature for 1 hour. Finally, the ratio of the fluorescence values at 615 nm and 665 nm was calculated using Envision equipment of Perkin-Elmer to quantitatively measure the enzyme activity and confirm the inhibitory ability of the compound. The values measured at 7 concentrations of the compound were analyzed using Prism program (version 5.01, Graphpad Software, Inc.), and the IC50 value, an index of the inhibitory ability of the compound, was calculated.
(Time-resolved FRET reads energy transfer from a long-lived donor to a nearby acceptor.)
In the case of `O=C1c2cc(-c3ccc(N4CCNCC4)cc3)ccc2CN1[C@@H](c1cc2cccnc2[nH]1)c1cc(Cl)ccc1O` [Example 50, (R)-2-((5-chloro-2-hydroxyphenyl)(1H-pyrrolo[2,3-b]pyridine-2-yl)methyl)-6-(4-(piperazine-4-yl)phenyl)isoindolin-1-one], it took 420 nM to reach half-maximal inhibition (IC50).

In turn, `O=C1c2cc(-c3ccc(N4CCNCC4)cc3)ccc2CN1[C@@H](c1cc2cc(F)ccc2[nH]1)c1cc(F)ccc1O` [Example 51, (R)-2-((5-fluoro-1H-indole-2-yl)(5-fluoro-2-hydroxyphenyl)methyl)-6-(4-(piperazine-1-yl)phenyl)isoindolin-1-one] came in with an IC50 of 650 nM.

On to `O=C1c2cc(-c3ccc(C4=CCNCC4)cc3)ccc2CN1[C@@H](c1cc2cc(F)ccc2[nH]1)c1cc(F)ccc1O` [Example 52, (R)-2-((5-fluoro-1H-indole-2-yl)(5-fluoro-2-hydroxyphenyl)methyl)-6-(4-(1,2,3,6-tetrahydropyridine-4-yl)phenyl)isoindolin-1-one], for which the half-inhibitory concentration (IC50) was over 10000 nM.

Compound `O=C1c2cc(-c3ccc(N4CCNCC4)cc3)ccc2CN1[C@H](c1cc2ccccc2[nH]1)c1cc(F)ccc1O` [Example 53, (S)-2-((5-fluoro-2-hydroxyphenyl)(1H-indole-2-yl)methyl)-6-(4-(piperazine-1-yl)phenyl)isoindolin-1-one] registered an IC50 of 120 nM.

Compound `CC(=O)N1CCN(c2ccc(-c3ccc4c(c3)C(=O)N([C@@H](c3cc5ccccc5[nH]3)c3cc(F)ccc3O)C4)cc2)CC1` [Example 54, (R)-6-(4-(4-acetylpiperazine-1-yl)phenyl)-2-((5-fluoro-2-hydroxyphenyl)(1H-indole-2-yl)methyl)-isoindolin-1-one] yielded an IC50 of 240 nM.

In the case of `CN1CCN(C2CCN(c3ccc(-c4ccc5c(c4)C(=O)N([C@@H](c4cc6ccccc6[nH]4)c4cc(F)ccc4O)C5)cc3)CC2)CC1` [Example 57, (R)-2-((5-fluoro-2-hydroxyphenyl)(1H-indole-2-yl)methyl)-6-(4-(4-(4-methylpiperazine-1-yl)piperidine-1-yl)phenyl)isoindolin-1-one], the IC50 came out at 40 nM.

Regarding `CN1CCN(C2CCN(c3ccc(-c4ccc5c(c4)C(=O)N([C@@H](c4cc6ccccc6[nH]4)c4cc(Cl)ccc4O)C5)cc3)CC2)CC1` [Example 58, (R)-2-((5-chloro-2-hydroxyphenyl)(1H-indole-2-yl)methyl)-6-(4-(4-(4-methylpiperazine-1-yl)piperidine-1-yl)phenyl)isoindolin-1-one], the IC50 is 3700 nM.

For the compound `O=C1c2cc(-c3ccc(N4CCC(N5CCNCC5)CC4)cc3)ccc2CN1[C@@H](c1cc2ccccc2[nH]1)c1cc(F)ccc1O` [Example 59, (R)-2-((5-fluoro-2-hydroxyphenyl)(1H-indole-2-yl)methyl)-6-(4-(4-(piperazine-1-yl)piperidine-1-yl)phenyl)isoindolin-1-one], the 50% inhibitory concentration (IC50) came to 32 nM.

For the compound `O=C1c2cc(-c3ccc(N4CCC(N5CCNCC5)CC4)cc3)ccc2CN1[C@@H](c1cc2ccccc2[nH]1)c1cc(Cl)ccc1O` [Example 60, (R)-2-((5-chloro-2-hydroxyphenyl)(1H-indole-2-yl)methyl)-6-(4-(4-(piperazine-1-yl)piperidine-1-yl)phenyl)isoindolin-1-one], the concentration for half-maximal inhibition (IC50) worked out at 190 nM.

With `CN(C)C1CCN(c2ccc(-c3ccc4c(c3)C(=O)N([C@@H](c3cc5ccccc5[nH]3)c3cc(F)ccc3O)C4)cc2)CC1` [Example 61, (R)-6-(4-(4-(dimethylamino)piperidine-1-yl)phenyl)-2-((5-fluoro-2-hydroxyphenyl)(1H-indole-2-yl)methyl)-isoindolin-1-one], the midpoint of inhibition, the IC50, lay at 66 nM.

Regarding `CN(C)C1CCN(c2ccc(-c3ccc4c(c3)C(=O)N([C@@H](c3cc5ccccc5[nH]3)c3cc(Cl)ccc3O)C4)cc2)CC1` [Example 62, (R)-2-((5-chloro-2-hydroxyphenyl)(1H-indole-2-yl)methyl)-6-(4-(4-(dimethylamino)piperidine-1-yl)phenyl)-isoindolin-1-one], the 50% inhibitory concentration (IC50) was 2200 nM.

The compound `O=C1c2cc(-c3ccc(N4CCN(C5CCNCC5)CC4)cc3)ccc2CN1[C@@H](c1cc2ccccc2[nH]1)c1cc(F)ccc1O` [Example 63, (R)-2-((5-fluoro-2-hydroxyphenyl)(1H-indole-2-yl)methyl)-6-(4-(4-(piperidine-4-yl)piperazine-1-yl)phenyl)isoindolin-1-one] gave an IC50 of 300 nM.

The compound `O=C1c2cc(-c3ccc(N4CCN(C5CCNCC5)CC4)cc3)ccc2CN1[C@@H](c1cc2ccccc2[nH]1)c1cc(Cl)ccc1O` [Example 64, (R)-2-((5-chloro-2-hydroxyphenyl)(1H-indole-2-yl)methyl)-6-(4-(4-(piperidine-4-yl)piperazine-1-yl)phenyl)isoindolin-1-one] showed a 50% inhibitory concentration (IC50) of 260 nM.

Compound `CN1CCC(N2CCN(c3ccc(-c4ccc5c(c4)C(=O)N([C@@H](c4cc6ccccc6[nH]4)c4cc(F)ccc4O)C5)cc3)CC2)CC1` [Example 65, (R)-2-((5-fluoro-2-hydroxyphenyl)(1H-indole-2-yl)methyl)-6-(4-(4-(1-methylpiperidine-4-yl)piperazine-1-yl)phenyl)isoindolin-1-one] came in with an IC50 of 50 nM.

On to `CN1CCC(N2CCN(c3ccc(-c4ccc5c(c4)C(=O)N([C@@H](c4cc6ccccc6[nH]4)c4cc(Cl)ccc4O)C5)cc3)CC2)CC1` [Example 66, (R)-2-((5-chloro-2-hydroxyphenyl)(1H-indole-2-yl)methyl)-6-(4-(4-(1-methylpiperidine-4-yl)piperazine-1-yl)phenyl)isoindolin-1-one], for which half-maximal inhibition (IC50) was put at 410 nM.

`O=C1c2cc(-c3ccc(N4CCCC4)cc3)ccc2CN1[C@@H](c1cc2ccccc2[nH]1)c1cc(F)ccc1O` [Example 67, (R)-2-((5-fluoro-2-hydroxyphenyl)(1H-indole-2-yl)methyl)-6-(4-(pyrrolidine-1-yl)phenyl)isoindolin-1-one] had an IC50 of 790 nM.

Regarding `O=C1c2cc(-c3ccc(N4CCCC4)cc3)ccc2CN1[C@@H](c1cc2ccccc2[nH]1)c1cc(Cl)ccc1O` [Example 68, (R)-2-((5-chloro-2-hydroxyphenyl)(1H-indole-2-yl)methyl)-6-(4-(pyrrolidine-1-yl)phenyl)isoindolin-1-one], 250 nM corresponded to half-maximal inhibition (IC50).

Compound `N[C@@H]1CCN(c2ccc(-c3ccc4c(c3)C(=O)N([C@@H](c3cc5ccccc5[nH]3)c3cc(F)ccc3O)C4)cc2)C1` [Example 69, 6-(4-((R)-3-aminopyrrolidine-1-yl)phenyl)-2-((R)-(5-fluoro-2-hydroxyphenyl)(1H-indole-2-yl)methyl)isoindolin-1-one] came in with an IC50 of 56 nM.

`N[C@@H]1CCN(c2ccc(-c3ccc4c(c3)C(=O)N([C@@H](c3cc5ccccc5[nH]3)c3cc(Cl)ccc3O)C4)cc2)C1` [Example 70, 6-(4-((R)-3-aminopyrrolidine-1-yl)phenyl)-2-((R)-(5-chloro-2-hydroxyphenyl)(1H-indole-2-yl)methyl)isoindolin-1-one]: the half-maximal inhibitory concentration (IC50) worked out at 730 nM.

Regarding `N[C@H]1CCN(c2ccc(-c3ccc4c(c3)C(=O)N([C@@H](c3cc5ccccc5[nH]3)c3cc(F)ccc3O)C4)cc2)C1` [Example 71, 6-(4-((S)-3-aminopyrrolidine-1-yl)phenyl)-2-((R)-(5-fluoro-2-hydroxyphenyl)(1H-indole-2-yl)methyl)isoindolin-1-one], the IC50 was determined as 45 nM.
